Assay results reported in publication PMC11820102, “Molecular Dynamics-Assisted Discovery of Novel Phosphodiesterase-5 Inhibitors Targeting a Unique Allosteric Pocket” (Molecules, 2025).

Experiments:
[1] = target: T1, PDE5A1 (Homo sapiens, UniProt O76074); experiment: radiometric 3H-cGMP hydrolysis assay, inhibition ratio at […]; format: biochemical; set-up: gene PDE5A; catalytic domain, amino acids 535–860
[2] = target: T1, PDE5A1; set-up: gene PDE5A
[3] = target: PDE11A (Homo sapiens, UniProt Q9HCR9); experiment: radiometric 3H-cAMP/3H-cGMP hydrolysis assay, single concentration; format: biochemical
PDE11A, sequence (Q9HCR9 whole entry): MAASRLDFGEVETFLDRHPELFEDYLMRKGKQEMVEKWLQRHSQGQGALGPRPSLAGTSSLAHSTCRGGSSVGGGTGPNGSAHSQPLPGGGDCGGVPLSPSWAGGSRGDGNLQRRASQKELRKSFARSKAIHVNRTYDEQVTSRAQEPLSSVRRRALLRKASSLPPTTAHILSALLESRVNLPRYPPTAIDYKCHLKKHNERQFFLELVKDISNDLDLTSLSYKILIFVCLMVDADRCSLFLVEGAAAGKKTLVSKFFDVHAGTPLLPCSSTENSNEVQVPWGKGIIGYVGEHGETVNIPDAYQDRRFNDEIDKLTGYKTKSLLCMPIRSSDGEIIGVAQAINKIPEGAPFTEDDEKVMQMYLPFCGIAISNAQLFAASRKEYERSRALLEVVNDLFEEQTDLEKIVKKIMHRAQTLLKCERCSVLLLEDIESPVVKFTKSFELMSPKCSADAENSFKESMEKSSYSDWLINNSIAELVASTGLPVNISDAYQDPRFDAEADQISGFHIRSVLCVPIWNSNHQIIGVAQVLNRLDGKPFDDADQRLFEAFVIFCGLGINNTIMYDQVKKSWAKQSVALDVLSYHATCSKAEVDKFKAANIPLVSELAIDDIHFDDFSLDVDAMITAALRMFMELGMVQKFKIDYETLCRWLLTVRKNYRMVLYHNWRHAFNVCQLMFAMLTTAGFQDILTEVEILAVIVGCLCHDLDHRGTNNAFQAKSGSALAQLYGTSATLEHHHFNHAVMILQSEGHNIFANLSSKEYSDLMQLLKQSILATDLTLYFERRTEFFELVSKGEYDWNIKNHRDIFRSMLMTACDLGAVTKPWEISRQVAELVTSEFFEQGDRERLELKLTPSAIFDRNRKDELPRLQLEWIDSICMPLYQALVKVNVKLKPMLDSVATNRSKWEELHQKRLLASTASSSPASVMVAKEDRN

[4] = target: PDE10A (Homo sapiens, UniProt Q9Y233); experiment: as above; format: biochemical
PDE10A, sequence (Q9Y233 whole entry, the tested form may be a part): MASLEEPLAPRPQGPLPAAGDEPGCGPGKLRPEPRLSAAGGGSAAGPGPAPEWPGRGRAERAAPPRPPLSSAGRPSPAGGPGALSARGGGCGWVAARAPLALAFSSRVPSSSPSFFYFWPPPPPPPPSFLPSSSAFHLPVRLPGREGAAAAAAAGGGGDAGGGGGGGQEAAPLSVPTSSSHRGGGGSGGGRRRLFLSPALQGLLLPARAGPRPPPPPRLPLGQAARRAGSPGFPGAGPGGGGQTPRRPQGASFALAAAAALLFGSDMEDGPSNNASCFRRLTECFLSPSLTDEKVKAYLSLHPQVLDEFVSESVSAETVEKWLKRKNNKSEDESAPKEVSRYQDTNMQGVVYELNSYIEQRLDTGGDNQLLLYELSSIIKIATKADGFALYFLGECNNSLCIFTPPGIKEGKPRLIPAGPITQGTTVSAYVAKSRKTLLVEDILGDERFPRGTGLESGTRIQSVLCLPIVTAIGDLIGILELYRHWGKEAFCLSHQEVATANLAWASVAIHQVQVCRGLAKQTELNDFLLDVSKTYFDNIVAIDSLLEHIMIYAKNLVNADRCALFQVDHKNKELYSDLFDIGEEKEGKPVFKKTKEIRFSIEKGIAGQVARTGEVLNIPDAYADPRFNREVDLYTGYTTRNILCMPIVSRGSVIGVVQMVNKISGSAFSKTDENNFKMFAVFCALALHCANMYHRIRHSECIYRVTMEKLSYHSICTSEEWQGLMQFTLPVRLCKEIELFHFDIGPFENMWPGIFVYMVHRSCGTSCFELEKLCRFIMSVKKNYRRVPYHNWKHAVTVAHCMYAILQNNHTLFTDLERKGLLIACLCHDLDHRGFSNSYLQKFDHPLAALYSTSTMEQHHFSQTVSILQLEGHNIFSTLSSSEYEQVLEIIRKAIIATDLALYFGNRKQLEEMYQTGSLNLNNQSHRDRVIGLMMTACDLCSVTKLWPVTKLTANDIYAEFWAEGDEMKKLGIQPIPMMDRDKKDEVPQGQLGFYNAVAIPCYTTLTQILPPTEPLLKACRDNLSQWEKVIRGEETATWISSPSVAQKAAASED

[5] = target: T1, PDE5A1; experiment: radiometric 3H-cGMP hydrolysis assay, dose-response; format: biochemical; set-up: gene PDE5A; catalytic domain, amino acids 535–860

Structure (SMILES): COc1cc([N+](=O)[O-])cc2c1C(=O)Nc1ccccc1O2 [AG-205/40649212]
- inhibition at 10 µM [1]: > 50%

Structure (SMILES): CCCc1nn(C)c2c(=O)[nH]c(-c3cc(S(=O)(=O)N4CCN(C)CC4)ccc3OCC)nc12 [Sildenafil]
- % inhibition at 10 nM [2]: > 50

Structure (SMILES): COc1ccc(-c2cc3[nH]nc(N)c3c(=O)[nH]2)cc1 [AR-270/43409613]
- inhibition at 10 µM [1]: > 50%

Structure (SMILES): Cc1sc(N)c2c(=O)oc3c4ccccc4ccc3c12 [AI-898/12177002]
- % inhibition at 10 μM [3]: 63
- % inhibition at 10 μM [4]: 79
- IC50 [5]: 1600 nM

Structure (SMILES): COc1cccc2c1C(=O)c1c(O)ccc(O)c1C2=O [AG-650/41069360]
- inhibition at 10 µM [1]: > 50%

Structure (SMILES): CC1(C2CCc3c(O)c4c(c(O)c3C2)C(=O)c2ccccc2C4=O)OCCO1 (stereo not drawn) [AE-508/36401018]
- inhibition at 10 µM [1]: > 50%

Structure (SMILES): COc1cccc2c1C(=O)/C(=C/c1ccc(N(C)C)cc1)C2 [AT-051/43410123]
- inhibition at 10 µM [1]: > 50%
